These results are taken from US5494909A, “Substituted oxazinoisoquinoline derivatives, pharmaceutical compositions containing them and process for preparing same” (priority 1991, dated 1996).

Series [1] concerns excitatory amino acid receptor-dependent calcium channels. As to conditions: literature; cited from earlier work.
Series [2] deals with Veratrine-stimulated Ca uptake, synaptosomes prepared from rat brain. Format: biochemical, rat (Wistar).
Source text: (§1) The calcium uptake-inhibitory effect of the compounds of the formula (I) according to the invention was studied on synaptosomes prepared from rat brain by using a method described in J. Neurochem.
(§2) Wistar rats weighing 180 to 200 g were decapitated and the brains were collected in ice-cold physiological saline, the cortex was removed and purified from the white matter. The tissue was homogenized by a glass-teflon potter in 10 volumes of a saccharose solution of 0.32 moles/liter concentration. The homogenate was centrifuged at 1000×g in a Janetzki K-70 centrifuge at 4° C. for 10 minutes, the supernatant was centrifuged at 12000×g in a Hitachi CR-26H centrifuge at 4° C. for 20 minutes. The sediment was suspended in a saccharose solution of 0.32 moles/liter concentration, then the protein content of the preparation was adjusted to 20 mg/ml.
Components of the solution used for incubation were as follows: […]
After placing the filter disks in glass cuvets, 10 ml of scintillation cocktail [containing 1000 ml of toluene, 400 ml of abs. ethanol, 10 ml of dioxane, 6 g of 2,5-diphenyloxazole and 0.15 g of 1,4-bis(5-phenyl-2-oxazolyl)benzene] and the radioactivity of the samples was measured by using an 1219 Rackbeta type liquid scintillation spectrophotometer (product of LKB Wallace Company).
For series [3], the system named is genetically hypertensive rats (SHR). Description: The hypobaric hypoxia test. The format is in vivo, rat (genetically hypertensive. As to conditions: Rattus norvegicus, 1 h; male SHR rats; 22.66 kPa; one hour after administration; protected = survival time 30% longer than control. An excerpt:
The antihypoxic effect of the target compounds was studied on genetically hypertensive rats (SHR), which are particularly sensitive to hypoxic insults. Male rats weighing 210 to 230 g each were used for these experiments.
The hypobaric hypoxia test
The experimental animals were placed in pairs in a desiccator of 6 liters volume one hour after administration of the compound to be tested. The pressure in the desiccator was decreased to 22.66 kPa (170 mmHg) during 20 seconds. The time elapsing from this point until the last respiratory movement was measured. An animal was considered to be protected when its survival time was by 30% longer in comparison with the control group.

The nature of series [4]: Oral toxicity (LD50). The conditions noted are these: in vivo.
In series [5] the test system is Potassium-stimulated Ca uptake, synaptosomes prepared from rat brain. Description: Inhibition of potassium-stimulated calcium uptake into rat brain synaptosomes. As to conditions: for IC50: read-out: Inhibition of Potassium-stimulated Ca uptake IC50, 60 mmoles/l KCl, rat synaptosomes, pH 7.4, 37° C., 20 seconds.
Source text: as §1, §2
Components of the solution used for incubation were as follows:
Incubation solution was saturated with oxygen containing 5% by volume of carbon dioxide until reaching a pH value of 7.4. The test compounds and the synaptosome preparation in an amount corresponding to 1 mg of protein were added into the incubation solution. The final volume of incubation was 1 ml. The samples were pre-incubated at 37° C. for 20 minutes.
The calcium uptake was initiated by addition of a 45CACl2 solution of 2.8 kBq (75 nCi) activity. Potassium chloride was used in a concentration of 60 mmoles/l for the investigation of potassium-stimulated calcium uptake; sodium chloride was added in the same concentration to the control samples.
The incubation time was 20 seconds. The reaction stopped by adding 5 ml of a stopping solution containing 120 mmoles/l of sodium chloride, 5 mmoles/l of potassium chloride, 5 mmoles/l of EGTA [ethylene glycol bis(β-aminoethyl)ether-N,N, N',N'-tetraacetic acid]and 20 mmoles/l of TRIS (pH 7.4).
Where [6] appears, read: qualitative / comparison with reference drug.

Molecules are shown by their SMILES.

On to `C[C@]12N[C@H](Cc3ccccc31)c1ccccc12` [MK-801, (+)-5-methyl-10,11-dihydro-5H-dibenzo[a,d]cyclohepten-5,10-imine], for which, in series [1], the “effect on excitatory amino acid receptor-dependent calcium channels (in words)” value is given as “inhibit the excitatory amino acid receptor-dependent calcium channels”.

For `COc1cc2c(cc1OCc1ccccc1)CCN1C(=Nc3ccc(C)cc3)OCCC21.Cl` (stereo not shown) [compound 1507136, 9-benzyloxy-10-methoxy-4-(p-tolylimino)-1,6,7,11b-tetrahydro-2H,4H-1,3-oxazino[4,3-a]isoquinoline hydrochloride], the “veratrine-induced calcium uptake inhibitory effect (in words)” value in series [2] (setting [6]) was “to a higher degree than flunarizine did”. The 50% inhibitory concentration (IC50) (commonly the concentration at which inhibition is half-maximal) amounted to 0.29 µM in series [2] (veratrine 20 μmoles/l, rat synaptosomes, pH 7.4, 37° C., 20 seconds, read-out: Inhibition of Veratrine-stimulated Ca uptake IC50) and 23.9 µM in series [5]. In addition, it took a dose of 8 mg/kg to reach the 50% effect level in series [3] (ED50). Besides, in series [4], the LD50 – broadly, the dose at which mortality reaches 50% – came to 1400 mg/kg. Besides, in series [5] (setting [6]), the “potassium-induced calcium uptake inhibitory effect (in words)” value is listed as “exceeds that of cinnarizine”.

As for `Fc1ccc(C(c2ccc(F)cc2)N2CCN(C/C=C/c3ccccc3)CC2)cc1` [flunarizine], in series [3], the ED50 – broadly, the dose at which the effect has come halfway, by size or by number of responders – amounted to 50 mg/kg.

In series [3], `COCCOC(=O)C1=C(C)NC(C)=C(C(=O)OC(C)C)C1c1cccc([N+](=O)[O-])c1` (stereo not shown) [nimodipine, isopropyl 2methoxyethyl 1,4dihydro-2,6-dimethyl-4-(mnitrophenyl)-3,5-pyridinedicarboxylate, reference compound] had an ED50 of 8 mg/kg. Besides, the IC50 in series [5] is 208 µM.
